The target in one assay is T1, OX1 (Homo sapiens, UniProt O43613).
T1 construct: expressed in transfected cells; host or cells: CHO (CHO-OX1)
T1 sequence (O43613 1-425): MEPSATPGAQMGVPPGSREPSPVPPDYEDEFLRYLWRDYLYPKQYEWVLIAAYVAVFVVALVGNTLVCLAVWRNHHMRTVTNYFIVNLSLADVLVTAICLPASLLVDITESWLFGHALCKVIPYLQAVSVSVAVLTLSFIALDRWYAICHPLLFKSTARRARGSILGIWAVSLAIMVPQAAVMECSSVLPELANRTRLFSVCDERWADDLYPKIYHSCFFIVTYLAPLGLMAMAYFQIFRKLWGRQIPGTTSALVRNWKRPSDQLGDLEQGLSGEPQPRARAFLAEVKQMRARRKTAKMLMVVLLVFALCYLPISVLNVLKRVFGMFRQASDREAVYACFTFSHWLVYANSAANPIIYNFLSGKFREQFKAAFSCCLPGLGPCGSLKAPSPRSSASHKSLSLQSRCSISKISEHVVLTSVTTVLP
The experiment in a line: Orexin receptor cell-based functional assay (FLIPR [Ca2+]i), OX1. The note with it: CHO-OX1 cells, FLIPR calcium, EC90 of OXA. On the procedure: (§1) Measurement of [Ca^2+]i using a FLIPR: CHO-OX1 or CHO-OX2 cells were seeded into black-walled clear-base 384-well plates (Corning, catalog #3712) at a density of 20,000 cells per well in F12-K medium supplemented with 10% FBS and then incubated in a 5% CO2, 37 C incubator overnight to reach 90% confluency. The cells were incubated with equal volume of calcium6 loading buffer (Molecular Devices, Inc.) containing 2.5 mM probenecid at 37° C. for 2 h, followed by test compounds (dose-range 0.1 nM-10 μM) for another 30 min. The plates were then placed into a FLIPR (Molecular Devices, Inc.) to monitor fluorescence (λ excitation 488 nm, λ emission 540 nm) before and after the addition of EC90 of [OXA].

A further assay has as its target T2, OX2 (Homo sapiens, UniProt O43614).
T2 construct: expressed in transfected cells; host or cells: CHO (CHO-OX2)
T2 sequence (O43614 1-444): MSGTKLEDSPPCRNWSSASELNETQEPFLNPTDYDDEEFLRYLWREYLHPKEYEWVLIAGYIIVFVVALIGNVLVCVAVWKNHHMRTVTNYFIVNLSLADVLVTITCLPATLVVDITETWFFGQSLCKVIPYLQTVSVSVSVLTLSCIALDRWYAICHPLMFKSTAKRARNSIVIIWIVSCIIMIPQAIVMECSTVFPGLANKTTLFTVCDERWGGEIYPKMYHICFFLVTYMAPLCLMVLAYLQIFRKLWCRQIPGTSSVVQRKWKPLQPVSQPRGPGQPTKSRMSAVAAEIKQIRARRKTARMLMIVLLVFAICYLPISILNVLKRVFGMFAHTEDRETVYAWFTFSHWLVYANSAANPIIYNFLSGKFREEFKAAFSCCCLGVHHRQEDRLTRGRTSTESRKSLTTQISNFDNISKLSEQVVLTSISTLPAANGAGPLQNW
Put plainly: Orexin receptor cell-based functional assay (FLIPR [Ca2+]i), OX2. The note with it: CHO-OX2 cells, FLIPR calcium, EC90 of OXA. As to the method:
as §1

Take `O=C(c1c(F)cccc1-n1nccn1)N1CCC(F)(F)[C@H]1CNc1ncc(C(F)(F)F)cn1` [Example 57]: the IC50 at OX1 is 3 nM; at OX2, greater than 5000 nM.

Regarding `Cc1c(F)ccc(C(=O)N2CCC(F)(F)[C@H]2CNc2ncc(Cl)cn2)c1-n1nccn1` [Example 69], the IC50 on OX1 was 21 nM; on OX2, greater than 5000 nM.

As to `Cc1ccc(-n2nccn2)c(C(=O)N2CCC(F)(F)[C@H]2COc2ccc(C(F)(F)F)cn2)c1` [Example 25], the IC50 at OX1 is 230 nM; at OX2, greater than 5000 nM.

`Cc1ccc(-n2nccn2)c(C(=O)N2CCC(F)(F)[C@H]2CNc2ncc(C(F)(F)F)cn2)c1` [Example 2]: the half-maximal inhibitory concentration (IC50) at OX1 is 4 nM; at OX2, greater than 5000 nM.

As to `Cc1ccc(-n2nccn2)c(C(=O)N2CCC(F)(F)[C@H]2CNc2ncc(Cl)cn2)c1` [Example 65], the results for the IC50 at OX1 and at OX2 were 6 nM and greater than 5000 nM, respectively.

Consider `Cc1nc(C(=O)N2CCC(F)(F)[C@H]2CNc2ncc(C(F)(F)F)cn2)c(-c2ccc(F)cc2)s1` [Example 1], for which the IC50 on OX1 was 1 nM; on OX2, greater than 5000 nM.

Consider `Cc1ccc(C(=O)N2CCC(F)(F)[C@H]2CNc2ncc(Cl)cn2)c(-n2nccn2)c1F` [Example 68], for which the IC50 at OX1 is 105 nM; on OX2 it was greater than 5000 nM.

With `Cc1cc(C)c(-n2nccn2)c(C(=O)N2CCC(F)(F)[C@H]2CNc2ncc(C(F)(F)F)cn2)c1` [Example 60], the half-inhibitory concentration (IC50) is 16 nM at OX1 and greater than 5000 nM at OX2.

`O=C(c1cc(Cl)ccc1-n1nccn1)N1CCC(F)(F)[C@H]1CNc1ncc(C(F)(F)F)cn1` [Example 54]: the half-maximal inhibitory concentration (IC50) on OX1 was 3 nM; on OX2, greater than 5000 nM.

As to `Cc1c(F)ccc(C(=O)N2CCC(F)(F)[C@H]2CNc2ncc(C(F)(F)F)cn2)c1-n1nccn1` [Example 7], the IC50 is 15 nM at OX1 and greater than 5000 nM on OX2.

On to `O=C(c1c(-n2nccn2)ccc(F)c1F)N1CCC(F)(F)[C@H]1CNc1ncc(C(F)(F)F)cn1` [Example 52], for which the figures for the concentration for half-maximal inhibition (IC50) on OX1 and on OX2 were 6 nM and greater than 5000 nM, respectively.

Consider `O=C(c1cc(F)ccc1-n1nccn1)N1CCC(F)(F)[C@H]1CNc1ncc(Cl)cn1` [Example 64], for which the results for the half-inhibitory concentration (IC50) on OX1 and on OX2 were 22 nM and greater than 5000 nM, respectively.

For the compound `O=C(c1cc(F)ccc1-c1ncccn1)N1CCC(F)(F)[C@H]1CNc1ncc(C(F)(F)F)cn1` [Example 10], the IC50 on OX1 was 2 nM; on OX2, greater than 5000 nM.

On to `Cc1cccc(C(=O)N2CCC(F)(F)[C@H]2CNc2ncc(C(F)(F)F)cn2)c1-n1nccn1` [Example 55], for which the results for the half-maximal inhibitory concentration (IC50) on OX1 and at OX2 were 7 nM and greater than 5000 nM, respectively.

For `O=C(c1ccc(F)c(F)c1-n1nccn1)N1CCC(F)(F)[C@H]1CNc1ncc(Cl)cn1` [Example 67], the half-maximal inhibitory concentration (IC50) is 1000 nM on OX1 and greater than 5000 nM on OX2.

With `O=C(c1cc(F)ccc1-n1nccn1)N1CCC(F)(F)[C@H]1CNc1cnc(C(F)(F)F)cn1` [Example 77], the results for the IC50 at OX1 and at OX2 were 3 nM and 720 nM, respectively.

On to `O=C(c1ccc(F)cc1-n1nccn1)N1CCC(F)(F)[C@H]1CNc1ncc(C(F)(F)F)cn1` [Example 53], for which the results for the IC50 at OX1 and at OX2 were 15 nM and 830 nM, respectively.

With `Cc1ccc(C(=O)N2CCC(F)(F)[C@H]2CNc2ncc(C(F)(F)F)cn2)c(-n2nccn2)c1F` [Example 8], the concentration for half-maximal inhibition (IC50) on OX1 was 11 nM; on OX2, greater than 5000 nM.

On to `N#Cc1ccc(-n2nccn2)c(C(=O)N2CCC(F)(F)[C@H]2CNc2ncc(C(F)(F)F)cn2)c1` [Example 56], for which the IC50 is 14 nM on OX1 and greater than 5000 nM at OX2.

Take `O=C(c1cccc(F)c1-n1nccn1)N1CCC(F)(F)[C@H]1CNc1ncc(C(F)(F)F)cn1` [Example 3]: the values for the IC50 on OX1 and at OX2 were 4 nM and greater than 5000 nM, respectively.

As to `N#Cc1ccc(-n2nccn2)c(C(=O)N2CCC(F)(F)[C@H]2CNc2ncc(Cl)cn2)c1` [Example 66], the half-maximal inhibitory concentration (IC50) at OX1 is 6 nM; on OX2 it was greater than 5000 nM.

Turning to `Cc1cccc(C(=O)N2CCC(F)(F)[C@H]2CNc2ncc(Cl)cn2)c1-n1nccn1` [Example 63], the IC50 at OX1 is 3 nM; at OX2 it was greater than 5000 nM.

Turning to `Cc1cccc(-n2nccn2)c1C(=O)N1CCC(F)(F)[C@H]1CNc1ncc(C(F)(F)F)cn1` [Example 58], the IC50 was 14 nM on OX1 and greater than 5000 nM at OX2.

Regarding `O=C(c1cc(F)ccc1-n1nccn1)N1CCC(F)(F)[C@H]1CNc1ncc(C(F)(F)F)cn1` [Example 5], the values for the IC50 on OX1 and on OX2 were 4 nM and greater than 5000 nM, respectively.

`O=C(c1cc(F)ccc1-n1nccn1)N1CCC(F)(F)[C@H]1COc1ccc(C(F)(F)F)cn1` [Example 74]: the values for the IC50 at OX1 and at OX2 were 660 nM and greater than 5000 nM, respectively.

Take `O=C(c1ncccc1-n1nccn1)N1CCC(F)(F)[C@H]1CNc1ncc(Cl)cn1` [Example 70]: the IC50 was 20 nM at OX1 and greater than 5000 nM on OX2.

Turning to `O=C(c1ccc(F)c(F)c1-n1nccn1)N1CCC(F)(F)[C@H]1CNc1ncc(C(F)(F)F)cn1` [Example 59], the IC50 on OX1 is 757 nM; on OX2 it was greater than 5000 nM.

With `O=C(c1cc(F)c(F)cc1-n1nccn1)N1CCC(F)(F)[C@H]1CNc1ncc(C(F)(F)F)cn1` [Example 51], the figures for the IC50 at OX1 and on OX2 were 24 nM and 840 nM, respectively.

Source of the values: US10221170B2, “Difluoropyrrolidines as orexin receptor modulators” (Eolas Therapeutics, Inc., priority 2014, dated 2019).
